The values below come from patent US12084472B2 (Ardelyx, Inc., priority 2015, dated 2024).

The target in one experiment is T1, human TGR5 (Homo sapiens, UniProt Q8TDU6).
T1 construct: expressed in transfected cells; host or cells: HEK293
T1 sequence (Q8TDU6 1-330): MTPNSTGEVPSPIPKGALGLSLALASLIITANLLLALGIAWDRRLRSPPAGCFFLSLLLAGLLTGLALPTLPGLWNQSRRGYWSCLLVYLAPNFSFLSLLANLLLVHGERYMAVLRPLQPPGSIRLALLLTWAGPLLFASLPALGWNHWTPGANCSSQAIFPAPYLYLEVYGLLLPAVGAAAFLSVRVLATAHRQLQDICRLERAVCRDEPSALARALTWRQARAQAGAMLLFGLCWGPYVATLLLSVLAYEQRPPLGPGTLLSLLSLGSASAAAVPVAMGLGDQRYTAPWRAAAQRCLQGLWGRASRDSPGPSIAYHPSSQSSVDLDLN
The experiment in a line: Cell-based TGR5 assay (cAMP generation, HTRF). The following applies: HEK293 cells stably transfected with human TGR5; cAMP by HTRF; 30 minutes at 37° C. The gist of the method: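 First, compounds in 3-fold serial dilution were placed in HBSS with 10 mM HEPES pH 7.4 and 0.5 mM IBMX. Next, human TGR5-expressing HEK293 cells were added and incubated 30 min at 37° C. Finally, cAMP was detected by HTRF and pEC50 derived by logistic fitting.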
As to `CN(CCCCNC(=O)NCCOCCOCCNC(=O)NCCCCNC(=O)NCCOCCOCCNC(=O)NCCCCN(C)S(=O)(=O)c1ccc(Cl)c(COC2(c3cnccc3-c3ccccc3OC3CC3)CC2)c1)S(=O)(=O)c1ccc(Cl)c(COC2(c3cnccc3-c3ccccc3OC3CC3)CC2)c1` [Compound I-736, 3-(4-[N-methyl[4-chloro-3-([1-[4-(2-cyclopropoxyphenyl)pyridin-3-yl]cyclopropoxy]methyl)benzene]sulfonamido]butyl)-1-[2-(2-[2-[([4-[([2-[2-(2-[[(4-[N-methyl[4-chloro-3-([1-[4-(2-cyclopropoxyphenyl)pyridin-3-yl]cyclopropoxy]methyl)benzene]sulfonamido]butyl)carbamoyl]amino]ethoxy)ethoxy]ethyl]carbamoyl)amino]butyl]carbamoyl)amino]ethoxy]ethoxy)ethyl]urea], the “pEC50 Human TGR5” value is on record as “B (B is a pEC50 of 6 to 6.9)”.

Still in this experiment, the particulars now being: HEK293 cells stably transfected with human TGR5; cAMP by HTRF; 30 minutes at 37° C.; read-out: pEC50 Human TGR5 (converted).
Consider `Cc1cc(COC2(c3cnccc3-c3ccccc3OC3CC3)CC2)c(Cl)cc1CCCCN(CCO)C(=O)NC[C@H](O)[C@@H](O)[C@H](O)[C@H](O)CO` [Compound I-97, 1-(4-(5-chloro-4-((1-(4-(2-cyclopropoxyphenyl)pyridin-3-yl)cyclopropoxy)methyl)-2-methylphenyl)butyl)-1-(2-hydroxyethyl)-3-((2S,3R,4R,5R)-2,3,4,5,6-pentahydroxyhexyl)urea], for which the EC50 is 126 to 1000 nM. `CN1CCCN(S(=O)(=O)c2ccc(Cl)c(COC3(c4cnccc4-c4ccccc4OC4CC4)CC3)c2)CC1` [Compound I-769, 1-((4-chloro-3-((1-(4-(2-cyclopropoxyphenyl)pyridin-3-yl)cyclopropoxy)methyl)phenyl)sulfonyl)-4-methyl-1,4-diazepane]: the EC50 is 126 to 1000 nM. Regarding `CC(CCSc1ccc(Cl)c(COC2(c3cnccc3-c3ccccc3OC3CC3)CC2)c1)C(=O)NC[C@H](O)[C@@H](O)[C@H](O)[C@H](O)CO` (stereo partly drawn) [Compound I-690, 4-{[4-chloro-3-({1-[4-(2-cyclopropoxyphenyl)pyridin-3-yl]cyclopropoxy}methyl)phenyl]sulfanyl}-2-methyl-N-[(2S,3R,4R,5R)-2,3,4,5,6-pentahydroxyhexyl]butanamide], the EC50 is less than 100 nM. `FC(F)(F)c1ccc(Cl)c(CNC2(c3cnccc3-c3ccccc3OC3CC3)CC2)c1` [Compound I-32, N-{[2-chloro-5-(trifluoromethyl)phenyl]methyl}-1-[4-(2-cyclopropoxyphenyl)pyridin-3-yl]cyclopropan-1-amine]: the EC50 is less than 100 nM. Take `O=C(O)CCC(CCC(=O)O)(CCC(=O)O)NC(=O)CCCCc1cc(Cl)c(COC2(c3cnccc3-c3ccccc3OC3CC3)CC2)cc1Cl` [Compound I-102, 4-(2-carboxyethyl)-4-{5-[2,5-dichloro-4-({1-[4-(2-cyclopropoxyphenyl)pyridin-3-yl]cyclopropoxy}methyl)phenyl]pentanamido}heptanedioic acid]: the EC50 was 126 to 1000 nM. Take `Cc1cc(CNC2(c3cnccc3-c3ccccc3OC3CC3)CC2)c(Cl)cn1` [Compound I-34, N-[(5-chloro-2-methylpyridin-4-yl)methyl]-1-[4-(2-cyclopropoxyphenyl)pyridin-3-yl]cyclopropan-1-amine]: the EC50 was less than 100 nM. In the case of `O=C(COCC1CCN(S(=O)(=O)c2ccc(Cl)c(COC3(c4cnccc4-c4ccccc4OC4CC4)CC3)c2)C1)NC[C@H](O)[C@@H](O)[C@H](O)[C@H](O)CO` (stereo partly drawn) [Compound I-455, 2-({1-[4-chloro-3-({1-[4-(2-cyclopropoxyphenyl)pyridin-3-yl]cyclopropoxy}methyl)benzenesulfonyl]pyrrolidin-3-yl}methoxy)-N-[(2S,3R,4R,5R)-2,3,4,5,6-pentahydroxyhexyl]acetamide], the EC50 is less than 100 nM. Still for that read-out and setting: next, `O=C(CCC1CN(S(=O)(=O)c2ccc(Cl)c(COC3(c4cnccc4-c4ccccc4OC4CC4)CC3)c2)C1)NC[C@H](O)[C@@H](O)[C@H](O)[C@H](O)CO` [Compound I-448, 3-{1-[4-chloro-3-({1-[4-(2-cyclopropoxyphenyl)pyridin-3-yl]cyclopropoxy}methyl)benzenesulfonyl]azetidin-3-yl}-N-[(2S,3R,4R,5R)-2,3,4,5,6-pentahydroxyhexyl]propanamide]: less than 100 nM; `O=C(NCCCCNC(=O)NC[C@H](O)[C@@H](O)[C@H](O)[C@H](O)CO)NCCCCSc1ccc(Cl)c(COC2(c3cnccc3-c3ccccc3OC3CC3)CC2)c1` [Compound I-629, 1-(4-{[(4-{[4-chloro-3-({1-[4-(2-cyclopropoxyphenyl)pyridin-3-yl]cyclopropoxy}methyl)phenyl]sulfanyl}butyl)carbamoyl]amino}butyl)-3-[(2S,3R,4R,5R)-2,3,4,5,6-pentahydroxyhexyl]urea]: less than 100 nM; `Cc1cc(CNC2(c3cnccc3-c3ccccc3OC3CC3)CC2)c(Cl)cc1CCCCNC(=O)NC[C@H](O)[C@@H](O)[C@H](O)[C@H](O)CO` (stereo in doubt) [Compound I-151, 1-(4-{5-chloro-4-[({1-[4-(2-cyclopropoxyphenyl)pyridin-3-yl]cyclopropyl}amino)methyl]-2-methylphenyl}butyl)-3-[(2S,3R,4R,5R)-2,3,4,5,6-pentahydroxyhexyl]urea]: 126 to 1000 nM. With `O=C(O)CCNC(=O)N(CCCCc1cc(Cl)c(COC2(c3cnccc3-c3ccccc3OC3CC3)CC2)cc1Cl)C[C@H](O)[C@@H](O)[C@H](O)[C@H](O)CO` [Compound I-198, 3-[({4-[2,5-dichloro-4-({1-[4-(2-cyclopropoxyphenyl)pyridin-3-yl]cyclopropoxy}methyl)phenyl]butyl}[(2S,3R,4R,5R)-2,3,4,5,6-pentahydroxyhexyl]carbamoyl)amino]propanoic acid], the EC50 was less than 100 nM. With `O=C(NCCCCCS(=O)(=O)c1ccc(Cl)c(COC2(c3cnccc3-c3ccccc3OC3CC3)CC2)c1)NC[C@H](O)[C@@H](O)[C@H](O)[C@H](O)CO` [Compound I-640, 1-{5-[4-chloro-3-({1-[4-(2-cyclopropoxyphenyl)pyridin-3-yl]cyclopropoxy}methyl)benzenesulfonyl]pentyl}-3-[(2S,3R,4R,5R)-2,3,4,5,6-pentahydroxyhexyl]urea], the EC50 was less than 100 nM. Still for that read-out and setting: next, `O=C(O)CN1CCN(CCNC(=O)CCCCc2cc(Cl)c(COC3(c4cnccc4-c4ccccc4OC4CC4)CC3)cc2Cl)CC1` [Compound I-91, 2-(4-(2-(5-(2,5-dichloro-4-((1-(4-(2-cyclopropoxyphenyl)pyridin-3-yl)cyclopropoxy)methyl)phenyl)pentanamido)ethyl)piperazin-1-yl)acetic acid]: less than 100 nM.

As to `CC(OCc1cc(S(=O)(=O)N(CCCCNC(=O)NC[C@H](O)[C@@H](O)[C@H](O)[C@H](O)CO)C(C)C)ccc1Cl)c1cnccc1-c1ccccc1OC1CC1` (stereo partly drawn) [Compound I-753, 4-chloro-3-((1-(4-(2-cyclopropoxyphenyl)pyridin-3-yl)ethoxy)methyl)-N-isopropyl-N-(4-(3-((2S,3R,4R,5R)-2,3,4,5,6-pentahydroxyhexyl)ureido)butyl)benzenesulfonamide], the EC50 was less than 100 nM. For the compound `O=C([C@@H](O)[C@@H](O)[C@H](O)[C@@H](O)CO)N(CCCCO)CCCCCSc1ccc(Cl)c(COC2(c3cnccc3-c3ccccc3OC3CC3)CC2)c1` [Compound I-605, (2S,3S,4R,5S)-N-(5-{[4-chloro-3-({1-[4-(2-cyclopropoxyphenyl)pyridin-3-yl]cyclopropoxy}methyl)phenyl]sulfanyl}pentyl)-2,3,4,5,6-pentahydroxy-N-(4-hydroxybutyl)hexanamide], the EC50 is less than 100 nM.
